For orientation: IC50 means the midpoint of a concentration-inhibition curve.

T1 sequence (Q8N884 161-522): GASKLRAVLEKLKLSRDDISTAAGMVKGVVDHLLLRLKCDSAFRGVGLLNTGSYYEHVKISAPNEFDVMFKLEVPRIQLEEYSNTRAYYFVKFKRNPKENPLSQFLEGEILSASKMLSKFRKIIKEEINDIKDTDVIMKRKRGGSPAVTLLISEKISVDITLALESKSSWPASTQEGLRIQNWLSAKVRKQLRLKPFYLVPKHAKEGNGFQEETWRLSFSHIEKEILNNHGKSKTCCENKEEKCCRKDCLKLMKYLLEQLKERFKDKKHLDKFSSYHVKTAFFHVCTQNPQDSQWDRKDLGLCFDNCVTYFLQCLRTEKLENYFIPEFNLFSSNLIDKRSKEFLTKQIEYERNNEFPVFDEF

This test concerns the target T1, human cGAS (residues 161-522) (Homo sapiens, UniProt Q8N884).
T1 construct: human cGAS (residues 161-522); made in house
Description: cGAS Activity Assay—Malachite Green. It is filed as biochemical. To be noted: recombinant purified human cGAS 25 nM; 80 μM ATP, 80 μM GTP, 100 nM ISD; 4 hour at RT; phosphate detection by Malachite Green. The method, then:
Compounds were tested for cGAS inhibition in a coupled enzymatic assay based on Phosphate detection by Malachite Green. Final assay conditions were 20 mM TRIS pH 7.5 (Applichem), 5 mM MgCl2 (Sigma) and 0.01% BSA (Sigma) supplemented with 80 μM ATP (Sigma), 80 μM GTP (Sigma) and 100 nM Interferon Stimulating DNA (ISD) (Microsynth). Recombinantly expressed purified human cGAS (residues 161-522) was used at 25 nM.
All compounds were prepared as 10 mM stock solutions in DMSO and a 16 pt dilution series in DMSO with a dilution factor of 2.5 was prepared. 1 μL of DMSO dilution series was transferred to 32.3 μL reaction buffer, mixed by pipetting up/down, spun for 1 minute at 3000 rpm and was visually inspected for precipitation. 5 μL of 3-fold enzyme stock solution were transferred to an empty 384-well Black/Clear Flat Bottom Polystyrene NBS (Corning) rows 3-24. Rows 1-2 were filled with assay buffer. Plates were spun 10 seconds at 1000 rpm (164×g). 5 μL of compound intermediate dilution was added and mixed by pipetting up/down to rows 3-24. Rows 1-2 were filled with 3.1% DMSO assay buffer. Plates were spun 10 seconds at 1000 rpm (164×g). 5 μL 3-fold Nucleotide/DNA mix was added to all wells to start the reaction. Plates were spun 10 seconds at 1000 rpm (164×g) and incubated for 4 hour at room temperature (RT) in the dark. 5 μL 4 U/ml PPase (Sigma) were added to all wells. Plates spun 10 seconds at 1000 rpm (164×g). 10 μL BioMol green Solution (Enzo Life Sciences) was added to all wells. Plates spun 10 seconds at 1000 rpm (164×g) and incubated 30 minutes at RT in the dark. Absorbance data was collected 620 nm on an EnVision Multilable Reader (Perkin Elmer) and the following measurement settings were used: excitation filter photometric was 620 nm; excitation from the top; measurement height was 1 mm; number of flashes was 30; number of flashes integrated was 1.
All plates are checked for abnormalities and outliers in the Blank Control (no protein, row 1) and the Neutral Control (no compound, row 2) are excluded using the 3*SD rule. Data was normalized to 0 and 100% by Blank and Neutral Control and each curve was fitted and judged using the 4 parameter logistic equation to determine the IC50 for cGAS inhibition.
Table 13 provides IC50 values (μM) for cGAS inhibition obtained for particular examples of the present invention as measured by the above-described assay.
As to `Cc1noc(C)c1NS(=O)(=O)c1ccc(NC(=O)/C(C#N)=C(\O)c2cnoc2C)cc1` [Example 59, (Z)-2-cyano-N-(4-(N-(3,5-dimethylisoxazol-4-yl)sulfamoyl)phenyl)-3-hydroxy-3-(5-methylisoxazol-4-yl)acrylamide], the IC50 is 450 nM. The value for `Cc1noc(C)c1N(C(=O)c1cnoc1C)S(=O)(=O)c1ccc(NC(=O)/C(C#N)=C(\O)c2cnoc2C)cc1` [Example 60] was 520 nM; that for `Cc1oncc1/C(O)=C(\C#N)C(=O)Nc1ccc(S(C)(=O)=O)cc1Cl` [Example 61, (Z)-N-(2-chloro-4-methylsulfonyl-phenyl)-2-cyano-3-hydroxy-3-(5-methylisoxazol-4-yl)prop-2-enamide] was 110 nM.

Regarding `Cc1oncc1/C(O)=C(\C#N)C(=O)Nc1ccc(Oc2ccccc2)cc1` [Example 62, (Z)-2-cyano-3-hydroxy-3-(5-methylisoxazol-4-yl)-N-(4-phenoxyphenyl)acrylamide], the IC50 was 1560 nM. With `Cc1oncc1/C(O)=C(\C#N)C(=O)Nc1ccc(Oc2ccc(Cl)cc2)cc1` [Example 63, (Z)-N-(4-(4-chlorophenoxy)phenyl)-2-cyano-3-hydroxy-3-(5-methylisoxazol-4-yl)acrylamide], the IC50 was determined as 3460 nM. The value for `Cc1oncc1/C(O)=C(\C#N)C(=O)Nc1ccc(-c2ccccc2)cc1` [Example 64, (Z)-2-cyano-3-hydroxy-3-(5-methylisoxazol-4-yl)-N-(4-phenylphenyl)-prop-2-enamide] was 1730 nM; that for `Cc1oncc1/C(O)=C(\C#N)C(=O)Nc1ccc(C(F)(F)F)c(Cl)c1` [Example 65, (Z)-N-(3-chloro-4-(trifluoromethyl)phenyl)-2-cyano-3-hydroxy-3-(5-methylisoxazol-4-yl)acrylamide] was 1670 nM. On to `Cc1oncc1/C(O)=C(\C#N)C(=O)Nc1ccc(C(F)(F)F)cn1` [Example 66, (Z)-2-cyano-3-hydroxy-3-(5-methylisoxazol-4-yl)-N-(5-(trifluoromethyl)pyridin-2-yl)acrylamide], for which the concentration for half-maximal inhibition (IC50) was 490 nM. With `Cc1oncc1/C(O)=C(\C#N)C(=O)Nc1ccc(C(=O)Nc2ccccc2)cc1` [Example 67, (Z)-4-(2-cyano-3-hydroxy-3-(5-methylisoxazol-4-yl)acrylamido)-N-phenylbenzamide], the IC50 is 420 nM.

`Cc1oncc1/C(O)=C(\C#N)C(=O)Nc1nccc(-c2ccccc2)n1` [Example 68, (Z)-2-cyano-3-hydroxy-3-(5-methylisoxazol-4-yl)-N-(4-phenylpyrimidin-2-yl)acrylamide]: the 50% inhibitory concentration (IC50) amounted to 210 nM. Consider `Cc1oncc1/C(O)=C(\C#N)C(=O)Nc1cccc(C(=O)Nc2ccccc2)c1` [Example 69, (Z)-3-(2-cyano-3-hydroxy-3-(5-methylisoxazol-4-yl)acrylamido)-N-phenylbenzamide], for which the IC50 is 2000 nM.

Consider `Cc1oncc1/C(O)=C(\C#N)C(=O)Nc1ccc(C(=O)N[C@H]2CCN(Cc3ccccc3)C2)cc1` [Example 70, (S,Z)-N-(1-benzylpyrrolidin-3-yl)-4-(2-cyano-3-hydroxy-3-(5-methylisoxazol-4-yl)acrylamido)benzamide], for which the IC50 worked out at 1000 nM. The value for `Cc1oncc1/C(O)=C(\C#N)C(=O)Nc1cccc(NC(=O)c2ccccc2)c1` [Example 71, (Z)-N-(3-(2-cyano-3-hydroxy-3-(5-methylisoxazol-4-yl)acrylamido)phenyl) benzamide] was 1340 nM; that for `Cc1oncc1/C(O)=C(\C#N)C(=O)Nc1ccc(C(=O)NCc2ccccc2)cc1` [Example 72, (Z)-N-benzyl-4-(2-cyano-3-hydroxy-3-(5-methylisoxazol-4-yl)acrylamido)benzamide] was 680 nM; that for `Cc1oncc1/C(O)=C(\C#N)C(=O)Nc1ncc(OC2CCCCC2)cn1` [Example 73, (Z)-2-cyano-N-(5-(cyclohexyloxy)pyrimidin-2-yl)-3-hydroxy-3-(5-methylisoxazol-4-yl)acrylamide] was 140 nM. Turning to `Cc1oncc1/C(O)=C(\C#N)C(=O)Nc1ccc(Cc2ccccc2)cc1` [Example 74, (Z)-N-(4-benzylphenyl)-2-cyano-3-hydroxy-3-(5-methylisoxazol-4-yl)acrylamide], the IC50 came to 1500 nM. In the case of `Cc1cc(NC(=O)/C(C#N)=C(\O)c2cnoc2C)ccc1C(F)(F)F` [Example 75, (Z)-2-cyano-3-hydroxy-N-(3-methyl-4-(trifluoromethyl)phenyl)-3-(5-methylisoxazol-4-yl)acrylamide] it was 1900 nM; in that of `COc1cc(NC(=O)/C(C#N)=C(\O)c2cnoc2C)ccc1C(F)(F)F` [Example 76, (Z)-2-cyano-3-hydroxy-N-(3-methoxy-4-(trifluoromethyl)phenyl)-3-(5-methylisoxazol-4-yl)acrylamide], 4460 nM; in that of `Cc1oncc1/C(O)=C(\C#N)C(=O)Nc1ccc(C(=O)N(C)CC2CCCCC2)c(Cl)c1` [Example 77, (Z)-2-chloro-4-(2-cyano-3-hydroxy-3-(5-methylisoxazol-4-yl)acrylamido)-N-(cyclohexylmethyl)-N-methylbenzamide], 2520 nM. The value for `Cc1oncc1/C(O)=C(\C#N)C(=O)Nc1ccc(C(F)(F)F)c(C#N)c1` [Example 78, (Z)-2-cyano-N-(3-cyano-4-(trifluoromethyl)phenyl)-3-hydroxy-3-(5-methylisoxazol-4-yl)acrylamide] was 1640 nM; that for `Cc1oncc1/C(O)=C(\C#N)C(=O)Nc1ncc(C2CCCCC2)cn1` [Example 79, (Z)-2-cyano-N-(5-cyclohexylpyrimidin-2-yl)-3-hydroxy-3-(5-methylisoxazol-4-yl)acrylamide] was 190 nM. `COc1ccc(-c2cnc(NC(=O)/C(C#N)=C(\O)c3cnoc3C)nc2)cc1` [Example 80, (Z)-2-cyano-3-hydroxy-N-(5-(4-methoxyphenyl)pyrimidin-2-yl)-3-(5-methylisoxazol-4-yl)acrylamide]: the IC50 came to 610 nM. Turning to `Cc1oncc1/C(O)=C(\C#N)C(=O)Nc1ncc(-c2ccccc2)cn1` [Example 81, (Z)-2-cyano-3-hydroxy-3-(5-methylisoxazol-4-yl)-N-(5-phenylpyrimidin-2-yl)acrylamide], the IC50 was 670 nM.

In the case of `Cc1oncc1/C(O)=C(\C#N)C(=O)Nc1ncc(Oc2ccccc2)cn1` [Example 82, (Z)-2-cyano-3-hydroxy-3-(5-methylisoxazol-4-yl)-N-(5-phenoxypyrimidin-2-yl)acrylamide], the IC50 was found to be 300 nM. For the compound `Cc1oncc1/C(O)=C(\C#N)C(=O)Nc1ccc(Oc2ccccc2)cn1` [Example 83, (Z)-2-cyano-3-hydroxy-3-(5-methylisoxazol-4-yl)-N-(5-phenoxypyridin-2-yl)acrylamide], the IC50 came to 1020 nM. The value for `Cc1oncc1/C(O)=C(\C#N)C(=O)Nc1ncc(C(F)(F)F)cc1Cl` [Example 84, (Z)-N-(3-chloro-5-(trifluoromethyl)pyridin-2-yl)-2-cyano-3-hydroxy-3-(5-methylisoxazol-4-yl)acrylamide] was 280 nM; that for `Cc1oncc1/C(O)=C(\C#N)C(=O)Nc1ncc(OCC2CCCC2)cn1` [Example 85, (Z)-2-cyano-N-(5-(cyclopentylmethoxy)pyrimidin-2-yl)-3-hydroxy-3-(5-methylisoxazol-4-yl)acrylamide] was 160 nM; that for `Cc1oncc1/C(O)=C(\C#N)C(=O)Nc1ncc(C#Cc2ccccc2)cn1` [Example 86, (Z)-2-cyano-3-hydroxy-3-(5-methylisoxazol-4-yl)-N-(5-(phenylethynyl)pyrimidin-2-yl)acrylamide] was 480 nM. For `Cc1oncc1/C(O)=C(\C#N)C(=O)Nc1nccc(CCc2ccccc2)n1` [Example 87, (Z)-2-cyano-3-hydroxy-3-(5-methylisoxazol-4-yl)-N-(4-phenethylpyrimidin-2-yl)acrylamide], the IC50 amounted to 240 nM. The value for `Cc1oncc1/C(O)=C(\C#N)C(=O)Nc1ncc(CC2CCCCC2)cn1` [Example 88, (Z)-2-cyano-N-(5-(cyclohexylmethyl)pyrimidin-2-yl)-3-hydroxy-3-(5-methylisoxazol-4-yl)acrylamide] was 160 nM; that for `COCCOc1cnc(NC(=O)/C(C#N)=C(\O)c2cnoc2C)nc1` [Example 89, (Z)-2-cyano-3-hydroxy-N-(5-(2-methoxyethoxy)pyrimidin-2-yl)-3-(5-methylisoxazol-4-yl)acrylamide] was 80 nM.

These data come from US20230242494A1, “MALONITRILE DERIVATIVES” (Hoffmann-La Roche Inc., priority 2020, published 2023).
